From patent US6770649B2, “1-[1-(hetero)aryl-1-perhydroxyalkylmethyl]-piperazine compounds, process for their preparation and pharmaceutical compositions containing them” (Solvay Pharmaceuticals GmbH, priority 2001, dated 2004) come the findings set out here.

Like-named read-outs stand apart in the source and are kept apart here.

One experiment addresses T1, human NK-2 receptor (Homo sapiens, UniProt P21452).
T1 construct: expressed in transfected cells; host or cells: CHO cells (membrane preparation)
T1 sequence (P21452 1-398): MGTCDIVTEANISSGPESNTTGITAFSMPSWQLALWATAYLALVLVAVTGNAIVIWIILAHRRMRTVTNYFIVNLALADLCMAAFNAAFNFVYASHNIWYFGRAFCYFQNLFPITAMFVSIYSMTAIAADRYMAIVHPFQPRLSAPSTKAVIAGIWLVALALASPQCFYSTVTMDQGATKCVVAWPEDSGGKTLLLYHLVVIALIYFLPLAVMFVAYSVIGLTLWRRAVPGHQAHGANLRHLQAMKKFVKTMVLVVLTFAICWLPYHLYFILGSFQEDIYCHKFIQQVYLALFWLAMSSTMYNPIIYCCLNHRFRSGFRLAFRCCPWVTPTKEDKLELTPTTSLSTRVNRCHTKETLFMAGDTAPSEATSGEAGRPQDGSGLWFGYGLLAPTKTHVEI
As to the kind of experiment: Binding power of the test substances to NK-2 receptors in vitro ([3H]-SR 48968 displacement, CHO cell membranes). The following applies: displacement of [3H]-SR 48968, 90 min incubation, average of at least three measurements, 10^-6 to 10^-10 mol/l, read-out: pKi, affinity to human NK-2 receptors (converted). How it is done: 1. Determination of the Binding Power of the Test Substances to NK-2 Receptors in vitro
The affinity of the test substances to human NK-2 receptors was measured in vitro. The ability of the test substances to displace the selective NK-2 receptor antagonist SR 48968 (=saredutant) used as reference ligand from its corresponding bond was determined.
The receptor binding studies were carried out with radioactively marked [^3H]-SR 48968 (from Amersham) as ligand. For the binding test, different samples of a membrane preparation of CHO cells (=[…]), which express the human NK-2 receptor (for preparation, see N. P. Gerard et al., Journal of Biological Chemistry 265/33 (1990) 20455-20462), were incubated for 90 minutes (=min.) with a solution of the marked ligand, with the incubation mixtures containing no test substance or additions of different concentrations of test substance. Then in each case the membrane-bound ligands in the samples were separated from free ligands by filtration. The fraction remaining in the filter was washed several times with buffer solution, before its radioactivity was measured using a liquid scintillation counter. That concentration which effects half-maximum displacement of the bound reference ligand was determined as IC50 of the respective test substance. The inhibition constant (Ki value) of the test substance was calculated from the respective IC50 value, and was stated as the negative logarithmised value thereof (pKi).
For the compounds of Examples 1 to 39, the affinity to human NK-2 receptors was determined in each case by at least three measurements of the test substances in concentration series of 10^−6 to 10^−10 mol/l. If several measurements were performed, the average thereof was listed each time.
On the technique in general: In a radioligand displacement assay an active substance lowers the binding of a labelled ligand.

Experiment [1] deals with T2, NK-2 receptors (Cavia porcellus, UniProt Q64077).
T2 construct: the NK-2 receptors present in the gall-bladder preparations; from tissue; host or cells: Pirbright-White guinea pig: isolated gall-bladder (A2); anaesthetised whole animal (A3)
T2 sequence (Q64077 1-402): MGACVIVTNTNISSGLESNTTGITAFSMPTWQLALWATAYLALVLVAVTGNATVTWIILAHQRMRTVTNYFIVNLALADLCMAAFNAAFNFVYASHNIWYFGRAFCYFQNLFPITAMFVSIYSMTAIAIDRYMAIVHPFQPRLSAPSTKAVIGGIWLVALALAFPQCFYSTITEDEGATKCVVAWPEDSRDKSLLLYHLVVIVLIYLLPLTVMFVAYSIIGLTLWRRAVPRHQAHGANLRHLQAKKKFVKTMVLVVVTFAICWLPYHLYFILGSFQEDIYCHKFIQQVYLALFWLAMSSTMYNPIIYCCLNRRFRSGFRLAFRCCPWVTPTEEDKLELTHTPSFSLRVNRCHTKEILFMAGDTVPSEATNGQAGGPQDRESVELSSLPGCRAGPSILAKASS
As to the kind of experiment: Functional NK-2 antagonism on isolated guinea pig gall-bladder preparations (NKA-induced contraction). The following applies: inhibition of contraction caused by NKA 0.1 μmol/l; two hours' incubation; Pirbright-White guinea pig gall-bladder. The class given is cell-based. How it is done: 2. Determination of the Functional Antagonism of the Test Substances on Isolated Guinea Pig Tissue in vitro
The NK-2 receptor-antagonising action of the test substances was determined on isolated gall-bladder preparations from Pirbright-White guinea pigs, held in an oxygen-saturated nutrient solution. To this end, the preparations were fastened on one hand in the nutrient solution to organ holders and on the other hand on a force meter by a thread.
In this test the NK-2 receptors present in the gall-bladder preparations were stimulated with the natural NK-2 receptor agonist neurokinin A (=NKA; 0.1 μmol/l) and the contractions of the preparations caused thereby were measured as contractility in mN (=preliminary value) measured. Then NKA was rinsed out of the preparations with NKA-free solution and the test substances were added in a concentration of 10^−7 mol/l. After two hours' incubation of the preparations with the test substances, the contractions of the preparations then still caused by renewed NKA addition were again measured and the results were given as percentages, relative to the contractions initially measured, caused solely by NKA addition. The concentration of the test substances was increased iteratively in the subsequent experiments as a function of the result in logarithmic whole or half steps, until at least one concentration above or below 50% inhibition of contraction was determined (up to at most 10^−5 mol/l). For each concentration, the average value of inhibition of contraction was calculated from 2 to 4 preparations. In each case, the concentration of half-maximum inhibition (IC50) per test substance was calculated as characteristic variable. In each case the logarithmised value of the IC50 per test substance is given as pIC50 in [mol/l].

Experiment [2] has as its target T2, NK-2 receptors. As to the kind of experiment: NK-2-receptor-antagonistic effectiveness in vivo in anaesthetised guinea pigs (NKA test stimulus). The arrangement: species or system guinea pig. The following applies: for NK-2-receptor-antagonistic activity of colon motility, late drop in blood pressure and respiratory resistance (in words): cumulative administration i.v., antagonism detected 1 min. after administration had ended; for ED50: guinea pig. From the text:
3. Determination of the NK-2-receptor-antagonistic Effectiveness of the Test Substances in vivo
The NK-2- and NK-1-antagonistic activities of the test substances were investigated in anaesthetised guinea pigs in each case after intravenous (=i.v.) and oral (=p.o.) administration in vivio. With the present test model it is possible to detect both NK-2-antagonistic effects in three different organ systems (respiratory tracts, colon and circulation) and NK-1-antagonistic effects (rapid drop in blood pressure) in an animal simultaneously.
Pirbright-White guinea pigs of a body weight of 500-700 g were anaesthetised with ketamine/xylazine (67/13 mg/kg subcutaneously, initial dose, further doses administered as required). The animals were provided with an intravenous catheter in order to administer the substance and an intra-arterial catheter to measure the blood pressure. The animals were artificially ventilated via a tracheal cannula and the respiratory pressure was recorded by means of a pressure transducer. A balloon was introduced into the distal colon of the animals for manometric recording of colon motility by means of a pressure transducer. Blood pressure, heart rate, respiratory pressure and colonic pressure were measured continuously for each animal and plotted on a recorder and by means of a digital data-processing system. Neurokinin A (=NKA; 200 pmol/animal) was administered i.v. as a bolus as a test stimulus to stimulate the NK-1- and the NK-2 receptors. An addition of NKA of this type results in a great increase in respiratory pressure (bronchoconstriction) and colonic pressure, and in a biphasic drop in blood pressure. The first phase of hypotension (=phase of maximum hypotension within the first minute after administration of NKA) is mediated via NK-1 receptors, since they can be blocked completely by specific NK-1 receptor antagonists. The second phase of delayed hypotension (=phase of maximum hypotension after 2-5 min.) on the other hand is mediated via NK-2 receptors, since they can be blocked by specific NK-2 receptor antagonists. The doses of the test substances are given as ED50 values which each result in a response to the NKA test stimulus which is reduced to 50% of the initial value, as characteristic variables for the individual measurement parameters bronchoconstriction, colonic pressure and change in blood pressure mediated by NK-1 or NK-2.
The antagonistic effects of the test substances were first investigated in cumulative form, the time of the NKA test stimulus being 1 min. after the administration of the respective doses of the test substances had ended. These ED50 values obtained from cumulative dose effect curves are plotted in Table 2 below. In order additionally to detect the variation over time of the antagonistic effects of the test substances, the action of the NKA test stimulus was determined at different times (1, 30, 60, 90, 120, 150 and 180 min.) after administration of the test substances.

Setting [3] is: iv, cumulative dosing, NKA stimulus 1 min. after administration, NK-2-mediated late drop in blood pressure, read-out: ED50 Blood pressure, i.v. after 1 min. (cumulative).
Where [4] appears, read: iv, cumulative dosing, NKA stimulus 1 min. after administration, respiratory resistance (bronchoconstriction), read-out: ED50 Respiratory resistance, i.v. after 1 min. (cumulative).
Where [5] appears, read: iv, cumulative dosing, NKA stimulus (200 pmol/animal i.v.) 1 min. after administration, colonic pressure, read-out: ED50 Colonic pressure, i.v. after 1 min. (cumulative).
Setting [6] is: iv, from AUC of antagonistic effect over 120 min after administration, colonic pressure, read-out: ED50 Colonic pressure, i.v. AUC over 120 min.
Where [7] appears, read: iv, from AUC over 120 min after administration, NK-2-mediated drop in blood pressure, read-out: ED50 Blood pressure, i.v. AUC over 120 min.
Where [8] appears, read: iv, from AUC over 120 min after administration, respiratory resistance, read-out: ED50 Respiratory resistance, i.v. AUC over 120 min.
Where [9] appears, read: po, from AUC over 180 min after administration, NK-2-mediated drop in blood pressure, read-out: ED50 Blood pressure, p.o. AUC over 180 min.
[10] abbreviates: po, from AUC over 180 min after administration, colonic pressure, read-out: ED50 Colonic pressure, p.o. AUC over 180 min.
Setting [11] is: po, from AUC over 180 min after administration, respiratory resistance, read-out: ED50 Respiratory resistance, p.o. AUC over 180 min.

Consider `CN(CC(CCN1CCN(C(c2ccsc2)[C@H](O)[C@@H](O)[C@H](O)CO)CC1)c1ccc(Cl)c(Cl)c1)C(=O)c1ccccc1` (mixture of isomers) [Example 7], for which the Ki at human NK-2 receptor is not above 10 nM. Half-maximal inhibition against NK-2 receptors [1] (IC50) required 0.251 nM.

On to `CN(CC(CCN1CCN(C(c2ccsc2)[C@@H](O)[C@@H](O)[C@H](O)CO)CC1)c1ccc(Cl)c(Cl)c1)C(=O)c1ccccc1` (mixture of isomers) [Example 9], for which the Ki on human NK-2 receptor was not above 10 nM. Besides, the midpoint of inhibition against NK-2 receptors [1], the IC50, lay at 0.501 nM.

Regarding `CN(CC(CCN1CCN(C(c2ccsc2)[C@@H](O)[C@H](O)[C@H](O)CO)CC1)c1ccc(Cl)c(Cl)c1)C(=O)c1ccccc1` (mixture of isomers) [Example 17], the Ki at human NK-2 receptor was not above 10 nM. For the same compound, the IC50 (usually the concentration needed to halve the response being measured) on NK-2 receptors [1] is 0.2 nM.

As to `CN(C[C@@H](CCN1CCN(C(c2ccsc2)[C@H](O)CO)CC1)c1ccc(Cl)c(Cl)c1)C(=O)c1ccccc1` (stereo partly shown) [Example 5], the “NK-2-receptor-antagonistic activity of colon motility, late drop in blood pressure and respiratory resistance (in words)” value at NK-2 receptors [2] is “marked NK-2-receptor-antagonistic activity”. Further, the ED50 – broadly, the dose at which the effect has come halfway, by size or by number of responders – on NK-2 receptors [2] (setting [3]) amounted to 0.13 µmol/kg; at NK-2 receptors [2] (setting [4]), 0.106 µmol/kg; at NK-2 receptors [2] (setting [5]), 0.041 µmol/kg; at NK-2 receptors [2] (setting [6]), 0.014 µmol/kg; at NK-2 receptors [2] (setting [7]), 0.004 µmol/kg; on NK-2 receptors [2] (setting [8]) it was 0.008 µmol/kg. Besides, the ED50 on NK-2 receptors [2] (setting [9]) amounted to 7.6 µmol/kg; at NK-2 receptors [2] (setting [10]), 3.4 µmol/kg; at NK-2 receptors [2] (setting [11]), 2.7 µmol/kg. At human NK-2 receptor, the Ki was not above 1 nM.

As for `CN(C[C@@H](CCN1CCN(C(c2ccsc2)[C@H](O)[C@H](O)CO)CC1)c1ccc(Cl)c(Cl)c1)C(=O)c1ccccc1` (stereo partly drawn) [Example 15, N-((2S)-2-(3,4-dichlorophenyl)-4-{4[(2S,3R)-2,3,4-trihydroxy-1-(3-thienyl)butyl]-1-piperazinyl}-butyl)-N-methylbenzamide], the “NK-2-receptor-antagonistic activity of colon motility, late drop in blood pressure and respiratory resistance (in words)” value on NK-2 receptors [2] is “marked NK-2-receptor-antagonistic activity”. The ED50 is 0.114 µmol/kg at NK-2 receptors [2] (setting [3]); 0.079 µmol/kg on NK-2 receptors [2] (setting [4]); 0.041 µmol/kg on NK-2 receptors [2] (setting [5]); 0.009 µmol/kg on NK-2 receptors [2] (setting [6]); 0.047 µmol/kg on NK-2 receptors [2] (setting [7]); 0.042 µmol/kg at NK-2 receptors [2] (setting [8]). Also, the ED50 at NK-2 receptors [2] (setting [9]) was 8.6 µmol/kg; on NK-2 receptors [2] (setting [10]) it was 4.5 µmol/kg; at NK-2 receptors [2] (setting [11]) it was 3.2 µmol/kg. Also, at human NK-2 receptor, the Ki is not above 10 nM.
